# Laboratory results as given in patent US20020077329A1, “EP4 receptor inhibitors to treat rheumatoid arthritis” (priority 2000, published 2002).
# Marks after values point to notes of the source that are not given here.
# Columns and labels:
# [1] = tested on: rats with adjuvant-induced arthritis; experiment: Arthritic score in adjuvant arthritis (sum of the score for all four limbs); format: in vivo, male, Sprague-Dawley rats; settings: day 14; perorally day 0 to day 14; compound A and B 60 mg/kg bid, piroxicam 3 mg/kg qd, rofecoxib 1.5 mg/kg bid; n=8
# Procedure: (§1) Arthritis was induced in male, Sprague-Dawley rats (115-145 g, Japan SLC Inc., Shizuoka, Japan) on Day 0 by an injection of 300 μg of M. Tuberculosis H37 RA (Difco Laboratories Inc., Detroit, Mich.) in 100 μl of liquid paraffin (Wako Pure Chemical Industries, Ltd., Osaka, Japan) into the right hind footpad (Neuroscience 78: 843-850, 1997) on Day 0.
# (§2) EP4 antagonists included within Formula I as described above (compound A and B, 60 mg/kg, bid), piroxicam (Feldene®, 3 mg/kg, qd), rofecoxib (Vioxx®, 1.5 mg/kg, bid), and control vehicle were each suspended in 0.1% methylcellulose (MC) and perorally administered separately in five groups of rats from day 0 to day 14 in a volume of 1 ml per 100 g body weight.
# On Day 14, the arthritic score of each paw was evaluated as described below. The total arthritic score for each animal was the sum of the score for all four limbs (Agents and Actions 27: 356-358, 1989). […]
# [2] = tested on: rats with adjuvant-induced arthritis; experiment: Paw edema of adjuvant arthritis (hindpaw volume, hydroplethysmometer); format: in vivo, male, Sprague-Dawley rats; settings: for % inhibition contralateral paw / % inhibition ipsilateral paw: paw edema on day 14, perorally day 0 to day 14, compound A and B 60 mg/kg bid, piroxicam 3 mg/kg qd, rofecoxib 1.5 mg/kg bid, n=8
# Procedure: as §1, §2
# Hindpaw volume was measured by an hydroplethysmometer (Ugo Basile, Comerio, Italy) on Day 0, immediately before adjuvant injection, and on Days 1, 4, 7, 11 and 14 after injection. Paw swelling (%) was calculated as follows (Agents and Actions 34: 63-65, 1991):
# swelling (%)={Day X volume (ml)−Day 0 volume (ml)}/Day 0 volume (ml)×100.
smiles,measurement,setting,value
CCc1nc2cc(C(F)(F)F)c(Cl)cc2n1-c1ccc(CCN(C(=O)O)S(=O)(=O)c2ccc(C)cn2)cc1.Cl,melting point,,205.8 °C
"CCc1nc2c(C)nc(C)cc2n1-c1ccc(CCOC(=O)NS(=O)(=O)c2ccc(C)cc2)cc1 [Example 227, 2-[4-(2-ethyl-4,6-dimethyl-1H-imidazo[4,5-c]pyridin-1-yl)phenyl]ethyl (4-methylphenyl)sulfonylcarbamate]",melting point,,158 °C
"CCc1nc2c(C)nc(C)nc2n1-c1ccc(CCOC(=O)NS(=O)(=O)c2ccc(C)cc2)cc1 [Example 228, 2-[4-(8-ethyl-2,6-dimethyl-9H-purin-9-yl)phenyl]ethyl (4-methylphenyl)sulfonylcarbamate]",melting point,,162 °C
"CCc1nc2cc(C(F)(F)F)c(Cl)cc2n1-c1ccc(C[C@H](C)OC(=O)NS(=O)(=O)c2ccc(C)cc2)cc1 [Example 250, (1S)-2-{4-[6-chloro-2-ethyl-5-(trifluoromethyl)-1H-benzimidazol-1-yl]phenyl}-1-methylethyl (4-methylphenyl)sulfonylcarbamate]",melting point,,200.3 °C
"CCc1nc2cc(C(C)=O)ccc2n1-c1ccc(CCOC(=O)NS(=O)(=O)c2ccc(C)cc2)cc1 [Example 332, 2-[4-(5-acetyl-2-ethyl-1H-benzimidazol-1-yl)phenyl]ethyl (4-methylphenyl)sulfonylcarbamate]",melting point,,188 to 190 °C
"CN1C(C(=O)Nc2ccccn2)=C(O)c2ccccc2S1(=O)=O [Piroxicam, piroxicam]",% inhibition (arthritic score),[1],26.7** %
same,% inhibition contralateral paw,[2],96.2* %
same,% inhibition ipsilateral paw,[2],50.8** %
"CS(=O)(=O)c1ccc(C2=C(c3ccccc3)C(=O)OC2)cc1 [Rofecoxib, rofecoxib]",% inhibition (arthritic score),[1],18.5** %
same,edema formation in the ipsilateral paws (result in words),"[2]; during the entire experimental period (day 0 to day 14), versus disease group untreated with compound",weaker activity
same,% inhibition contralateral paw,[2],25.6%
same,% inhibition ipsilateral paw,[2],37.1* %
